Measurements from patent publication US4442044A, “Process for preparing monoesters and diesters of N-alkyl substituted amino methyl phosphonic acid” (priority 1983, dated 1984).

Experiments:
Test in all cases: post-emergent herbicidal activity, greenhouse
Format in all cases: in vivo
Hemp Sesbania = settings: Table II
Method in brief: (§1)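 Seeds or propagules sown in compacted top soil, grown 2–3 weeks in greenhouse, then sprayed with compound solution/suspension containing ~0.4% emulsifier at tabulated rates. Injury scored visually versus untreated controls at ~2 and 4 weeks after treatment, expressed as a herbicidal activity index.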

Panicum Spp = settings: Table II
Method in brief: as §1

Yellow Nutsedge = settings: Table I, 4 WAT
Method in brief: as §1

Downy Brome = tested on: Downy Brome
Method in brief: as §1

Cocklebur = tested on: Cocklebur
Method in brief: as §1

Morningglory = tested on: Morningglory
Method in brief: as §1

Wheat = settings: Table II
Method in brief: as §1

Lambsquarters = tested on: Lambsquarters
Method in brief: as §1

Measured: post-emergent herbicidal activity index

CC(C#N)OP(=O)(O)CNCC(=O)OCCCl (stereo not drawn) [Example 7, glycine, N-[[(1-cyanoethoxy)hydroxyphosphinyl]methyl], 2-chloroethyl ester]
3 (75-99% control): Hemp Sesbania; 4 WAT, 0.28 kg/h | Panicum Spp; 4 WAT, 0.06 kg/h | Panicum Spp; 4 WAT, 0.28 kg/h | Panicum Spp; 4 WAT, 5.6 kg/h | Yellow Nutsedge; 11.2 kg/h | Downy Brome; Table II, 4 WAT, 5.6 kg/h | Cocklebur; Table I, 4 WAT, 11.2 kg/h | Cocklebur; Table II, 4 WAT, 5.6 kg/h | Wheat; 4 WAT, 0.28 kg/h | Wheat; 4 WAT, 1.12 kg/h | Lambsquarters; Table I, 4 WAT, 11.2 kg/h
4 (100% control): Hemp Sesbania; 4 WAT, 5.6 kg/h | Panicum Spp; 4 WAT, 1.12 kg/h | Cocklebur; Table I, 4 WAT, 5.6 kg/h | Wheat; 4 WAT, 5.6 kg/h | Lambsquarters; Table I, 4 WAT, 5.6 kg/h | Lambsquarters; Table II, 4 WAT, 0.28 kg/h
1 (25-49% control): Downy Brome; Table II, 4 WAT, 0.06 kg/h | Morningglory; Table II, 2 WAT, 0.01 kg/h | Morningglory; Table II, 4 WAT, 0.28 kg/h | Wheat; 4 WAT, 0.06 kg/h | Lambsquarters; Table II, 2 WAT, 0.01 kg/h
0 (0-24% control): Hemp Sesbania; 4 WAT, 0.06 kg/h | Panicum Spp; 2 WAT, 0.01 kg/h | Downy Brome; Table II, 2 WAT, 0.01 kg/h | Cocklebur; Table II, 2 WAT, 0.01 kg/h | Cocklebur; Table II, 4 WAT, 0.06 kg/h | Wheat; 2 WAT, 0.01 kg/h | Lambsquarters; Table II, 4 WAT, 0.06 kg/h
2 (50-74% control): Hemp Sesbania; 4 WAT, 1.12 kg/h | Downy Brome; Table I, 4 WAT, 5.6 kg/h | Downy Brome; Table I, 4 WAT, 11.2 kg/h | Downy Brome; Table II, 4 WAT, 0.28 kg/h | Downy Brome; Table II, 4 WAT, 1.12 kg/h | Cocklebur; Table II, 4 WAT, 0.28 kg/h | Cocklebur; Table II, 4 WAT, 1.12 kg/h | Morningglory; Table I, 4 WAT, 5.6 kg/h | Morningglory; Table I, 4 WAT, 11.2 kg/h | Morningglory; Table II, 4 WAT, 0.06 kg/h | Morningglory; Table II, 4 WAT, 1.12 kg/h | Morningglory; Table II, 4 WAT, 5.6 kg/h | Lambsquarters; Table II, 4 WAT, 1.12 kg/h | Lambsquarters; Table II, 4 WAT, 5.6 kg/h

CC(C#N)OP(=O)(O)CNCC(=O)OCc1ccccc1 (stereo not drawn) [Example 10, glycine, N-[[(1-cyanoethoxy)hydroxyphosphinyl]methyl]-,phenylmethyl ester]
3 (75-99% control): Panicum Spp; 4 WAT, 0.28 kg/h | Cocklebur; Table II, 4 WAT, 5.6 kg/h | Lambsquarters; Table I, 4 WAT, 5.6 kg/h | Lambsquarters; Table I, 4 WAT, 11.2 kg/h | Lambsquarters; Table II, 4 WAT, 1.12 kg/h | Lambsquarters; Table II, 4 WAT, 5.6 kg/h
4 (100% control): Panicum Spp; 4 WAT, 1.12 kg/h | Panicum Spp; 4 WAT, 5.6 kg/h
1 (25-49% control): Hemp Sesbania; 4 WAT, 1.12 kg/h | Hemp Sesbania; 4 WAT, 5.6 kg/h | Yellow Nutsedge; 5.6 kg/h | Yellow Nutsedge; 11.2 kg/h | Downy Brome; Table I, 4 WAT, 11.2 kg/h | Downy Brome; Table II, 4 WAT, 0.28 kg/h | Cocklebur; Table II, 4 WAT, 0.28 kg/h | Wheat; 4 WAT, 0.28 kg/h | Lambsquarters; Table II, 2 WAT, 0.056 kg/h
2 (50-74% control): Downy Brome; Table I, 4 WAT, 5.6 kg/h | Downy Brome; Table II, 4 WAT, 1.12 kg/h | Downy Brome; Table II, 4 WAT, 5.6 kg/h | Cocklebur; Table I, 4 WAT, 5.6 kg/h | Cocklebur; Table I, 4 WAT, 11.2 kg/h | Cocklebur; Table II, 4 WAT, 1.12 kg/h | Morningglory; Table I, 4 WAT, 5.6 kg/h | Morningglory; Table I, 4 WAT, 11.2 kg/h | Morningglory; Table II, 4 WAT, 0.28 kg/h | Morningglory; Table II, 4 WAT, 1.12 kg/h | Morningglory; Table II, 4 WAT, 5.6 kg/h | Wheat; 4 WAT, 1.12 kg/h | Wheat; 4 WAT, 5.6 kg/h | Lambsquarters; Table II, 4 WAT, 0.28 kg/h
0 (0-24% control): Hemp Sesbania; 2 WAT, 0.011 kg/h | Hemp Sesbania; 2 WAT, 0.056 kg/h | Panicum Spp; 2 WAT, 0.011 kg/h | Panicum Spp; 2 WAT, 0.056 kg/h | Downy Brome; Table II, 2 WAT, 0.011 kg/h | Downy Brome; Table II, 2 WAT, 0.056 kg/h | Cocklebur; Table II, 2 WAT, 0.011 kg/h | Cocklebur; Table II, 2 WAT, 0.056 kg/h | Morningglory; Table II, 2 WAT, 0.011 kg/h | Morningglory; Table II, 2 WAT, 0.056 kg/h | Wheat; 2 WAT, 0.011 kg/h | Wheat; 2 WAT, 0.056 kg/h | Lambsquarters; Table II, 2 WAT, 0.011 kg/h
